Laboratory results reported in ChEMBL document CHEMBL5346955, “Discovery of HPG1860, a Structurally Novel Nonbile Acid FXR Agonist Currently in Clinical Development for the Treatment of Nonalcoholic Steatohepatitis” (J Med Chem, 2023).
Activity calls are given as the source filed them. The rule behind the calls is not given here.

Key:
[1] = Toxicity in C57BL/6J mouse assessed as change in body weight at 30 mg/kg, po qd; format: organism-based; details: in vivo
Mus musculus [2] = assay: Anti-nonalcoholic steatohepatitis activity against ccl4-induced C57BL/6J mouse model assessed as decrease in ALT level in liver at 30 mg/kg, po qd treated for 28 days; format: functional, organism-based; details: time 28.0 day
Mus musculus [3] = assay: Anti-nonalcoholic steatohepatitis activity against ccl4-induced C57BL/6J mouse model assessed as decrease in AST level in liver at 30 mg/kg, po qd treated for 28 days; format: functional, organism-based; details: time 28.0 day
Mus musculus [4] = assay: Anti-nonalcoholic steatohepatitis activity against ccl4-induced C57BL/6J mouse model assessed as reduction total cholesterol in serum at 30 mg/kg, po qd treated for 28 days; format: functional, organism-based; details: time 28.0 day
Mus musculus [5] = assay: Anti-nonalcoholic steatohepatitis activity against ccl4-induced C57BL/6J mouse model assessed as clearance of liver steatosis at 30 mg/kg, po qd treated for 28 days; format: functional, organism-based; details: time 28.0 day
Mus musculus [6] = assay: Anti-nonalcoholic steatohepatitis activity against ccl4-induced C57BL/6J mouse model assessed as improvement in liver inflammation at 30 mg/kg, po qd treated for 28 days; format: functional, organism-based; details: time 28.0 day
Mus musculus [7] = assay: Anti-nonalcoholic steatohepatitis activity against ccl4-induced C57BL/6J mouse model assessed as improvement in fibrosis at 30 mg/kg, po qd treated for 28 days; format: functional, organism-based; details: time 28.0 day
Bile acid receptor [8] = target: T1, Bile acid receptor (Homo sapiens, UniProt Q96RI1); assay: Agonist activity at human GAL4-FXR-LBD expressed in HEK293T cells assessed as transcriptional activity measured after 16 to 20 hrs by luciferase reporter gene assay; format: cell-based
T1 sequence (Q96RI1 whole entry): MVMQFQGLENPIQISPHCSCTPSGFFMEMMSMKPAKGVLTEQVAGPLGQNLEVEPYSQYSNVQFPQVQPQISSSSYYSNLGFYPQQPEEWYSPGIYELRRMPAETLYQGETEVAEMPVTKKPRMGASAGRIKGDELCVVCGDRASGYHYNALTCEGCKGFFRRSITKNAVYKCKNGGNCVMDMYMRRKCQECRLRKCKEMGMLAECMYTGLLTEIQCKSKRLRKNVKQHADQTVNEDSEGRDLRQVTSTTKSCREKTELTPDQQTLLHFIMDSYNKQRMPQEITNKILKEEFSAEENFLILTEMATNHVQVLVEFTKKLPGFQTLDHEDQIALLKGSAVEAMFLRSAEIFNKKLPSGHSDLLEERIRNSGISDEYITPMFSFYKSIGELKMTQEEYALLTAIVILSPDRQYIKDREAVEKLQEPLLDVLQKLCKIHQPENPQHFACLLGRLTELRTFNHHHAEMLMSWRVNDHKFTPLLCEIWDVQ

Bile acid receptor [9] = target: T1, Bile acid receptor; assay: Agonist activity at GST-tagged human FXR-LBD in presence of luorescein-SRC2-2 coactivator peptide by TR-FRET assay
[10] = Metabolic stability in human liver microsomes assessed as half life at 1 uM measured upto 120 mins by UPLC/MS/MS analysis; format: ADME, Microsome
[11] = Metabolic stability in rat liver microsomes assessed as half life at 1 uM measured upto 120 mins by UPLC/MS/MS analysis; format: ADME, Microsome
[12] = Metabolic stability in dog liver microsomes assessed as half life at 1 uM measured upto 120 mins by UPLC/MS/MS analysis; format: ADME, Canis lupus familiaris, Microsome
[13] = Metabolic stability in cynomolgus monkey liver microsomes assessed as half life at 1 uM measured upto 120 mins by UPLC/MS/MS analysis; format: ADME, Macaca fascicularis, Microsome

| Structure (SMILES) | EC50 (Bile acid receptor [8]) [nM] | EC50 (Bile acid receptor [9]) [nM] | other results |
| --- | --- | --- | --- |
| CC[C@H]1[C@@H](O)C2[C@@H]3CC[C@H]([C@H](C)CCC(=O)O)[C@@]3(C)CC[C@@H]2[C@@]2(C)CC[C@@H](O)C[C@@H]12 (stereo not given in full) | – | – | Activity [1]: Non-Toxic; Activity (Mus musculus [2]): inactive; Activity (Mus musculus [3]): inactive; Activity (Mus musculus [4]): Active; Activity (Mus musculus [5]): Active; Activity (Mus musculus [6]): inactive; Activity (Mus musculus [7]): Active |
| CC(C)c1onc(-c2c(Cl)cccc2Cl)c1CN1CCN(c2cc3cc(C(=O)O)ccc3s2)CC1 | 1190 | – | – |
| COc1cc(C(=O)O)cc2sc(N3CCN(Cc4c(-c5c(Cl)cccc5Cl)noc4C(C)C)CC3(C)C)nc12 | 127 | 37 | – |
| COc1cc(C(=O)O)cc2sc(N3CCN(Cc4c(-c5c(Cl)cccc5Cl)noc4C(C)C)CC34CC4)nc12 | 1240 | – | – |
| COc1cc(C(=O)O)cc2sc(N3CCN(Cc4c(-c5c(Cl)cccc5Cl)noc4C4CC4)C[C@@H]3C)nc12 | 124 | 16 | half-life at 1 µM [10]: 5.11 h; half-life at 1 µM [11]: 1.83 h; half-life at 1 µM [12]: 0.832 h; half-life at 1 µM [13]: 1.14 h |
| COc1cc(C(=O)O)cc2sc(N3CCN(Cc4c(-c5c(Cl)cccc5Cl)noc4C(C)C)CC3)nc12 | 147 | 31 | – |

Further lines, with some results ahead:

| EC50 (Bile acid receptor [8]) [nM] | EC50 (Bile acid receptor [9]) [nM] | Structure (SMILES) | other results |
| --- | --- | --- | --- |
| > 5000 | 200 | COc1cc(C(=O)O)cc2sc(C3CCN(Cc4c(-c5c(Cl)cccc5Cl)noc4C(C)C)CC3)nc12 | – |
| 85 | 21 | CCC1CN(Cc2c(-c3c(Cl)cccc3Cl)noc2C(C)C)CCN1c1nc2c(OC)cc(C(=O)O)cc2s1 (stereo not given) | – |
| > 5000 | 266 | COc1cc(C(=O)O)cc2sc(C3CCN(Cc4c(-c5c(Cl)cccc5Cl)noc4C(C)C)C3)nc12 (stereo not given) | – |
